{"source": "patent US20150209275A1", "about": "“Fast Dissolving Ocular Insert” (UNIVERSITY OF THE WITWATERSRAND, JOHANNESBURG, priority 2012, published 2015)", "key": {"CAM": {"system": "CAM", "experiment": "Modified Hen Egg Chorioallontoic (HET-CAM) ocular toxicity test", "conditions": "0.3 mL sample on CAM, 5 minutes", "experimental": "The methodology involved using hen's eggs (50-60 g fertile) that were purchased from a local hatchery (Bruce Hatcheries, South Africa) and less than a week old. The eggs were placed in commercial incubators (Surehatch, Brakenfell, South Africa) and rotated every 12 hours. On day 3, a hole was made and the albumin was removed. The eggs were sealed by sterile heated parafilm and left in an equatorial position. On day 5 and everyday thereafter eggs were candled for viability and non-viable ones were discarded. On day 10, a window (2×2 cm) was made and 2-3 mL saline (0.9% NaCl) was added and eggs were returned to the incubator. […] The eggs were then dosed with 0.3 mL of samples and observed for 5 minutes for any effects of injury in accordance with Table 11 and this was noted. Saline was used as a control for comparison purposes. Eggs were scored for severity of any reaction and time taken to occur (Table 11). At the end of the assay the embryos were discarded immediately by placing the eggs into a freezer −80° C. The following features were used for observation of injury: hemorrhage, vascular lysis and coagulation. FIG. 9 depicts the procedure for the test.\nThe period taken for any untoward reaction to occur was noted and the irritation threshold was determined ([…] concentration of samples required for a minimal reaction to occur). The irritation score was calculated by means of Equation 4."}, "[1]": {"conditions": "as an oral drug; cited from earlier work"}, "Excised rabbit corneas": {"system": "Excised rabbit corneas", "experiment": "Ex vivo permeation, Franz diffusion cell", "assay_type": "in vitro ADME", "conditions": "excised rabbit cornea", "experimental": "Franz diffusion cell apparatus was used to conduct ex vivo permeation studies. Excised rabbit corneas (11.83±0.04 mm in diameter and area […]) were mounted on the Franz diffusion cell apparatus (Permagear, Arnie Systems, USA) connected to a heating bath system for temperature control. The diffusion cell donor chamber was filled with 2 mL Simulated tear (lacrimal) fluid (SLF) (Gonjari et al., 2009) (which was maintained to simulate tear volume). 12 mL Simulated Aqueous Humor (SAH, pH 7.4, 37° C.) (Giannola et al., 2007) solution was contained in the receptor chamber. The cornea was placed such that the surface was in contact with the receptor solution which was continuously stirred by a magnetic stirrer at 20 rpm to simulate blinking. […] Aliquots of sample were withdrawn from the receptor compartment at regular intervals (30, 60, 120, 180, 240 minutes and 24 hours after insertion) and replaced with an equal volume of dissolution medium. Samples were then subjected to the quantification of drug through spectrophotometric analysis at 295 nm (Hewlett Packard 8453 Spectrophotometer, Germany) to determine the drug release and flux (rate of drug permeation per unit area). Drug flux values were calculated at the steady state per unit area by regression analysis of permeation. Drug flux values were calculated employing Equation 7. […]"}}}
{"molecule": "CCCCCCCCCCCCOS(=O)(=O)[O-].[Na+]", "note": "[SDS, Sodium Dodecyl Sulphate]", "values": [{"measurement": "HET-CAM Inference", "setting": "CAM", "result": "Severe"}, {"measurement": "IS (irritation score)", "setting": "CAM; scale 0-21, mean of 3 values, Sulphate", "result": 10.4}, {"measurement": "HET-CAM Score", "setting": "CAM; score 0-3 per Table 11, mean of 3 values", "result": 2.5}]}
{"molecule": "CC(C)(C)NC[C@H](O)COc1nsnc1N1CCOCC1", "note": "[timolol]", "values": [{"measurement": "BCS class", "setting": "[1]", "result": "class 1"}]}
{"molecule": "Timolol maleate salt [Pure drug dispersion]", "values": [{"measurement": "steady state drug flux", "setting": "Excised rabbit corneas; SLF donor, SAH pH 7.4, 37° C. receptor", "result": 0.000378, "unit": "mg.cm^−2.min^−1"}, {"measurement": "Kp (permeability co-efficient)", "setting": "Excised rabbit corneas; mean of 3 values", "result": 2, "unit": "×10⁻⁶ cm/s"}]}
